Measured values as given in patent US20130131161A1, “METHODS AND COMPOSITIONS FOR CARDIOVASCULAR DISEASES AND CONDITIONS” (priority 2009, published 2013).

Tested on: eNOS
Experiment: eNOS protein abundance in HUVECs by immunochemical methods (Example 2)
Format: cell-based, human
Details: for Fold difference eNOS protein abundance (mean ± sd): (LA-419 5 μM)/(control); for eNOS protein abundance Fold difference (mean ± sd): LA-419 5 μM / control; for eNOS protein abundance Net increase (mean ± sd): avg 5 μM LA-419 − avg Cntl
Source text: eNOS Activity and Protein Abundance Measurements
Using immunochemical methods, there was no change in any condition in relation to eNOS protein abundance, Tables ss-L1.

CC(=O)SC1COC2C(O[N+](=O)[O-])COC12 (stereo not drawn) [LA-419, S-(6-Nitro-oxi-hexahydro-furo[3,2-b]furan-3-1-il)thioacetate]
Fold difference eNOS protein abundance (mean ± sd) (Intron 4 b/a, a/a, c/c, n=14): 1.00 (0.09) | Fold difference eNOS protein abundance (mean ± sd) (Intron 4 b/a, n=10): 1.01 (0.10) | Fold difference eNOS protein abundance (mean ± sd) (Intron 4 b/b, b/a, c/c, n=42): 0.99 (0.08) | Fold difference eNOS protein abundance (mean ± sd) (Intron 4 b/b, n=31): 0.98 (0.07) | Fold difference eNOS protein abundance (mean ± sd) (Intron 4 c/c, n=1): 0.94 (0) | Fold difference eNOS protein abundance (mean ± sd) (T786C T/T & T/C, n=45): 0.99 (0.08) | Fold difference eNOS protein abundance (mean ± sd) (T-786C C/C, n=4): 0.93 (0.06) | Fold difference eNOS protein abundance (mean ± sd) (T-786C T/C & C/C, n=27): 0.99 (0.09) | Fold difference eNOS protein abundance (mean ± sd) (T-786C T/C, n=23): 1.00 (0.09) | Fold difference eNOS protein abundance (mean ± sd) (T-786C T/T, n=22): 0.99 (0.06) | eNOS protein abundance Fold difference (mean ± sd) (Caucasian, G894T + T-786C variant G/G + T/C (n=3), Table K): 1.10 (0.05) | eNOS protein abundance Fold difference (mean ± sd) (Caucasian, G894T + T-786C variant G/G + T/T (n=7), reference group, Table K): 1.04 (0.04) | eNOS protein abundance Fold difference (mean ± sd) (Caucasian, G894T + T-786C variant G/T + T/C (n=10), Table K): 1.00 (0.08) | eNOS protein abundance Fold difference (mean ± sd) (Caucasian, G894T + T-786C variant G/T + T/T (n=3), Table K): 1.02 (0.09) | eNOS protein abundance Fold difference (mean ± sd) (Caucasian, G894T + T-786C variant T/T + T/C (n=2), Table K): 1.04 (0.01) | eNOS protein abundance Fold difference (mean ± sd) (Caucasian, G894T variant G/G (n=10), major allele homozygotes, Table J): 1.06 (0.05) | eNOS protein abundance Fold difference (mean ± sd) (Caucasian, G894T variant G/G (n=10), Table I): 1.06 (0.05) | eNOS protein abundance Fold difference (mean ± sd) (Caucasian, G894T variant G/T & T/T (n=16), minor allele carriers, Table J): 1.01 (0.07) | eNOS protein abundance Fold difference (mean ± sd) (Caucasian, G894T variant G/T (n=13), Table I): 1.00 (0.08) | eNOS protein abundance Fold difference (mean ± sd) (Caucasian, G894T variant T/T (n=3), Table I): 1.03 (0.02) | eNOS protein abundance Fold difference (mean ± sd) (Caucasian, Genotype Combination = all minor allele carriers (n=19), Table L): 1.02 (0.08) | eNOS protein abundance Fold difference (mean ± sd) (Caucasian, Genotype Reference = G/G + T/T (n=7), Table L): 1.04 (0.04) | eNOS protein abundance Fold difference (mean ± sd) (Caucasian, Intron 4 variant b/a & a/a (n=6), minor allele carriers, Table J): 1.08 (0.06) | eNOS protein abundance Fold difference (mean ± sd) (Caucasian, Intron 4 variant b/a (n=5), Table I): 1.07 (0.06) | eNOS protein abundance Fold difference (mean ± sd) (Caucasian, Intron 4 variant b/b (n=18), major allele homozygotes, Table J): 1.00 (0.06) | eNOS protein abundance Fold difference (mean ± sd) (Caucasian, Intron 4 variant b/b (n=18), Table I): 1.00 (0.06) | eNOS protein abundance Fold difference (mean ± sd) (Caucasian, T-786C variant T/C & C/C (n=16), minor allele carriers, Table J): 1.02 (0.08) | eNOS protein abundance Fold difference (mean ± sd) (Caucasian, T-786C variant T/C (n=15), Table I): 1.02 (0.08) | eNOS protein abundance Fold difference (mean ± sd) (Caucasian, T-786C variant T/T (n=10), major allele homozygotes, Table J): 1.03 (0.06) | eNOS protein abundance Fold difference (mean ± sd) (Caucasian, T-786C variant T/T (n=10), Table I): 1.03 (0.06) | eNOS protein abundance Fold difference (mean ± sd) (G894T + T-786C variant T/T + C/C (n=1), Table K): 1.01 (0) | eNOS protein abundance Fold difference (mean ± sd) (Intron 4 variant a/a (n=1), Table I): 1.14 (0) | eNOS protein abundance Fold difference (mean ± sd) (T-786C variant C/C (n=1), Table I): 1.01 (0) | eNOS protein abundance (any condition, Tables ss-L1): no change | eNOS protein abundance Net increase (mean ± sd) (Combination of all G894T + T786C genotypes but G/G + T/T, n=31): −0.12 (0.53) pg/ug | eNOS protein abundance Net increase (mean ± sd) (G894T + T786C G/G + T/C, n=8): −0.17 (0.77) pg/ug | eNOS protein abundance Net increase (mean ± sd) (G894T + T786C G/G + T/T, n=18): −0.09 (0.35) pg/ug | eNOS protein abundance Net increase (mean ± sd) (G894T + T786C G/T + C/C, n=1): −0.99 (0) pg/ug | eNOS protein abundance Net increase (mean ± sd) (G894T + T786C G/T + T/C, n=13): −0.03 (0.42) pg/ug | eNOS protein abundance Net increase (mean ± sd) (G894T + T786C G/T + T/T, n=4): −0.03 (0.46) pg/ug | eNOS protein abundance Net increase (mean ± sd) (G894T + T786C T/T + C/C, n=3): −0.41 (0.46) pg/ug | eNOS protein abundance Net increase (mean ± sd) (G894T + T786C T/T + T/C, n=2): 0.17 (0.02) pg/ug | eNOS protein abundance Net increase (mean ± sd) (G894T G/G, n=26): −0.12 (0.50) pg/ug | eNOS protein abundance Net increase (mean ± sd) (G894T G/T & T/T, n=23): −0.10 (0.45) pg/ug | eNOS protein abundance Net increase (mean ± sd) (G894T G/T, n=18): −0.08 (0.46) pg/ug | eNOS protein abundance Net increase (mean ± sd) (G894T T/T, n=5): −0.18 (0.45) pg/ug | eNOS protein abundance Net increase (mean ± sd) (Intron 4 a/a, n=3): −0.05 (0.69) pg/ug | eNOS protein abundance Net increase (mean ± sd) (Intron 4 b/a, a/a, c/c, n=14): −0.05 (0.55) pg/ug | eNOS protein abundance Net increase (mean ± sd) (Intron 4 b/a, n=10): −0.02 (0.56) pg/ug | eNOS protein abundance Net increase (mean ± sd) (Intron 4 b/b, n=31): −0.14 (0.45) pg/ug | eNOS protein abundance Net increase (mean ± sd) (Intron 4 c/c, n=1): −0.44 (0) pg/ug | eNOS protein abundance Net increase (mean ± sd) (T786C C/C, n=4): −0.55 (0.47) pg/ug | eNOS protein abundance Net increase (mean ± sd) (T786C T/C & C/C, n=27): −0.13 (0.55) pg/ug | eNOS protein abundance Net increase (mean ± sd) (T786C T/C, n=23): −0.06 (0.54) pg/ug | eNOS protein abundance Net increase (mean ± sd) (T786C T/T, n=22): −0.08 (0.36) pg/ug
